# From patent US20230120205A1, “NERVE CELL DEGENERATION INHIBITOR” (KYOTO UNIVERSITY, priority 2020, published 2023)
# Columns and labels:
# [1] = system: ALS7 (C9orf72) cell-derived motor neurons; assay: Cytotoxicity: intracellular ATP level (CellTiter-Glo); type: cell-based, human
# Protocol: In order to examine the cytotoxicity of the test compound, the intracellular ATP level was measured.
# ALS7 (C9orf72) cells were seeded on an assay plate in the same procedure as in Experimental Example 1. Four days after seeding, the assay medium containing no Y-27632 was added to the plate, and the cells were cultured until seven days after seeding, and the assay medium (Retinoic Acid, Doxycycline, SAG, Y-27632-free) containing the test compound at a predetermined concentration was added to the plate by medium exchange. 24 hr or 48 hr after addition of the test compound, the medium was removed, and CellTiter-Glo Luminescent Cell Viability Assay (Promega, G7570) was performed.
# The method for detecting the cytotoxicity of the test compound is as follows.
# (§1) As a negative control, the cells cultured in the assay medium supplemented with DMSO instead of the test compound were used.
# The degree of the effect on the intracellular ATP level in the test compound-treated cells was defined as the ATP level of the test compound compared with the negative control, which was calculated by the following formula.
# ATP level of the test compound compared to the negative control=X/C×100
# X: ATP level in the test compound group, C: ATP level in the DMSO group
# When the intracellular ATP level was less than 0.5 times or more than 1.5 times the intracellular ATP level in the negative control, it was judged to be cytotoxic.
# RAN translation = RAN translation inhibitory activity (poly-GP level by electrochemiluminescence); type: cell-based, human; conditions: two days after addition, poly-GP level vs DMSO; for inhibition at 1 µM / inhibition at 3 µM / inhibition at 10 µM: Homo sapiens, 48 h
# Protocol: Next, the effect of the compound used in the present invention on RAN translation was examined. Among the DPRs generated by RAN translation, the poly-GP level was measured by an electrochemiluminescence system (Meso Scale Diagnostics).
# ALS7 (C9orf72) cells were seeded on an assay plate in the same procedure as in Experimental Example 1. Four days after seeding, the assay medium containing no Y-27632 was added to the plate, and the cells were cultured until seven days after seeding, and the assay medium (Retinoic Acid, Doxycycline, SAG, Y-27632-free) containing the test compound at a predetermined concentration was added to the plate by medium exchange. Two days after addition of the test compound, the medium was removed, and the cells were lysed in an urea buffer consisting of 8M Urea (Wako, 219-00175), 4% CHAPS (Dojindo, 349-04722) and 30 mM Tris-HCl (pH 8.0, Nippon Gene, 312-90061). The cell lysate was added to a multi-array 384 well plate (Meso Scale Diagnostics, L21XB-4), and the plate was agitated at 700 rpm with a plate shaker (Azwan, DM-301) at room temperature, and then allowed to stand overnight at 4° C. The cell lysate was removed, a blocking buffer consisting of 5% Blocker A (Meso Scale Diagnostics, R93AA-1) and 1×TBS-T {TBS (Bio-Rad, 170-6435) containing 0.05% Tween-20 (Bio-Rad, 170-6531)} was added to the plate, and the plate was agitated at 700 rpm with a plate shaker for 1 hr at room temperature, and then washed three times with a wash buffer consisting of 0.05% Tween-20 and PBS (Wako, 162-18547). C9RANT antibody (Novus Biologicals, NBP2-25018) diluted 10,000-fold with 1×TBS-T containing 1% Blocker A was added to the plate, and the plate was agitated at 700 rpm with a plate shaker for 2 hr at 4° C., and then allowed to stand overnight at 4° C. After washing three times with the wash buffer, SULFO-TAG Goat Anti-Rabbit Antibody (Meso Scale Diagnostics, R32AB-1) diluted 500-fold with 1×TBS-T containing 1% Blocker A was added to the plate, and the plate was agitated at 700 rpm with a plate shaker for 2 hr at room temperature. After washing three times with the wash buffer, 2×MSD Read Buffer T with Surfactant (Meso Scale Diagnostics, R92TC-1) was added to the plate, and the signal derived from the C9RANT antibody was measured by MESO SECTOR S600 (Meso Scale Diagnostics).
# The method for detecting the activity of the test compound is as follows.
# as §1
# RAN translation inhibitory activity of the test compound=100−X/C×100
# X: poly-GP level in the test compound group, C: poly-GP level in the DMSO group
Compound,"ATP level % compared to negative control ([1]; After 24 hr, 1 μM)","ATP level % compared to negative control ([1]; After 24 hr, 3 μM)","ATP level % compared to negative control ([1]; After 24 hr, 10 μM)","ATP level % compared to negative control ([1]; After 48 hr, 1 μM)","ATP level % compared to negative control ([1]; After 48 hr, 3 μM)","ATP level % compared to negative control ([1]; After 48 hr, 10 μM)",inhibition at 1 µM (RAN translation; 1 μM test compound),inhibition at 3 µM (RAN translation; 3 μM test compound),inhibition at 10 µM (RAN translation; 10 μM test compound),RAN translation inhibitory activity % (RAN translation; 1 μM test compound),RAN translation inhibitory activity % (RAN translation; 10 μM test compound),RAN translation inhibitory activity % (RAN translation; 3 μM test compound)
"COc1cc(F)ccc1-c1ncnc(Nc2cccc(CS(C)(=N)=O)c2)n1 (centres unmarked) [Compound No. 1, 4-(4-fluoro-2-methoxyphenyl)-N-{3-[(S-methanesulfonimidoyl)methyl]phenyl}-1,3,5-triazin-2-amine]",92%,107%,134%,91%,89%,122%,1%,19%,18%,–,–,–
"COc1ccccc1-c1ncnc(Nc2cccc(CS(N)(=O)=O)c2)n1 [Compound No. 2, 1-(3-{[4-(2-methoxyphenyl)-1,3,5-triazin-2-yl]amino}phenyl)methanesulfonamide]",98%,89%,101%,99%,74%,53%,> 1%,6%,15%,–,–,–
"COc1cc(Cl)ccc1-c1ncnc(Nc2cccc(CS(N)(=O)=O)c2)n1 [Compound No. 3, 1-(3-{[4-(4-chloro-2-methoxyphenyl)-1,3,5-triazin-2-yl]amino}phenyl)methanesulfonamide]",104%,97%,106%,105%,87%,69%,> 1%,1%,4%,–,–,–
"NS(=O)(=O)Cc1cccc(Nc2ncnc(-c3ccccc3OCc3ccccc3)n2)c1.O=C(O)C(F)(F)F [Compound No. 4a, 1-[3-({4-[2-(benzyloxy)phenyl]-1,3,5-triazin-2-yl}amino)phenyl]methanesulfonamide trifluoroacetate]",113%,128%,140%,80%,101%,115%,–,11%,–,5%,3%,–
"NS(=O)(=O)Cc1cccc(Nc2ncnc(-c3ccccc3OCc3ccccc3)n2)c1 [Compound No. 4b, 1-[3-({4-[2-(benzyloxy)phenyl]-1,3,5-triazin-2-yl}amino)phenyl]methanesulfonamide]",105%,121%,134%,73%,97%,102%,–,–,–,11%,17%,17%
"CS(=N)(=O)Cc1cccc(Nc2ncnc(-c3ccccc3OCc3ccc(Cl)c(Cl)c3)n2)c1 (centres unmarked) [Compound No. 5, 4-{2-[(3,4-dichlorophenyl)methoxy]phenyl}-N-{3-[(S-methanesulfonimidoyl)methyl]phenyl}-1,3,5-triazin-2-amine]",98%,118%,131%,83%,94%,108%,19%,16%,21%,–,–,–
"CCOC(=O)N=S(C)(=O)Cc1cccc(Nc2ncnc(-c3cccc4c3OCCO4)n2)c1 (centres unmarked) [Compound No. 6, ethyl {[(3-{[4-(2,3-dihydro-1,4-benzodioxin-5-yl)-1,3,5-triazin-2-yl]amino}phenyl)methyl](methyl)oxo-λ^6-sulfanylidene}carbamate]",89%,107%,130%,77%,71%,124%,16%,–,21%,–,–,–
"CCOC(=O)N=S(C)(=O)Cc1cccc(Nc2ncnc(-c3cccc4c3OCC4)n2)c1 (centres unmarked) [Compound No. 7, ethyl {[(3-{[4-(2,3-dihydro-1-benzofuran-7-yl)-1,3,5-triazin-2-yl]amino}phenyl)methyl](methyl)oxo-λ^6-sulfanylidene}carbamate]",89%,105%,126%,86%,87%,112%,4%,19%,17%,–,–,–
